Publication PMC6268642, “Facile Synthesis and Herbicidal Evaluation of 4H-3,1-Benzoxazin-4-ones and 3H-Quinazolin-4-ones with 2-Phenoxymethyl Substituents” (Molecules, 2012)
Read-outs that look alike come from different tables or passages of the source.

Experiments:
[1] = tested on: barnyard grass Echinochloa crusgalli; assay: Petri dish culture, growth inhibition of root and stalk of barnyard grass; assay type: in vivo; conditions: Echinochloa crus-galli, 120 h, 5 days; for inhibition at 1 µg/mL: 1 mg/L; for inhibition at 10 µg/mL: 10 mg/L
Experimental: (§1) The synthesized compounds were tested for the herbicidal activity on model plants including a monocotyledon (barnyard grass) and a dicotyledon (rape) by the reported Petri dish culture method. The percent inhibitory ratios against the growth of root and stalk of barnyard grass and rape at different dosage concentrations were calculated, and the compounds with appreciable inhibitory potencies are selected and shown in Table 1 and Table 2. Several features of the inhibitory activities can be derived. First, all the compounds have stronger inhibition against the growth of the dicotyledon rape than against the monocotyledon barnyard grass, showing appreciable selectivity.
(§2) The herbicidal activity was examined for the growth inhibition effect of the dicotyledon rape Brassica napus and the monocotyledon barnyard grass Echinochloa crusgalli, using the standard Petri dish test and the pre-emergence treatment procedure. […] Nine mL of the solution was added in a Petri dish of 9 cm diameter and two pieces of filter paper were placed on the dish bottom. Twenty seeds each of rape and barnyard grass were placed on the filter paper. The covered Petri dish was transferred into an artificial climate incubator (MGC-400H, Shantou Keyi Co., Ltd., China), where the conditions were controlled at temperature 23 ± 1 °C, humidity 60 ± 5%, light intensity 10 Klux, and photoperiod 12 h/day. The incubation was continued for 5 days, then the lengths of 10 roots and 10 stems for each type of plant were measured and the mean values were calculated. The percent inhibitory ratios were calculated relative to control plants exposing to distilled water instead of the compound solution.

rape Brassica napus [2] = assay: Petri dish culture, growth inhibition of root and stalk of rape; assay type: in vivo; conditions: Brassica napus, 120 h, 5 days; for inhibition at 1 µg/mL: 1 mg/L; for inhibition at 10 µg/mL: 10 mg/L
Experimental: as §1, §2

rape Brassica napus [3] = assay: Concentration-dependent root elongation inhibition of rape (IC50); assay type: in vivo; conditions: Brassica napus
Experimental: Several representative compounds selected from the 2-phenoxy-4H-3,1-benzoxazin-4-one and 2-phenoxy-3H-quinazolin-4-one groups were tested their concentration dependant activities and the half maximal inhibitory concentrations (IC50 values) are shown in Table 3. Obviously, the 2-phenoxy-4H-3,1-benzoxazin-4-ones 3m and 3o have IC50 values near to that of the commercial herbicidal 2,4-D. More importantly, these molecules consist of 2-phenoxymethyl group with halo substituents both at the 2- and 4- positions of the benzene ring, a similar pattern to the commercial hormone herbicides 2,4-D, clomeprop, and 2,4-DB, as well as the ACCase herbicide diclofop-methyl. […] Moreover, if no halo group exists on the benzene ring, the activity will decrease dramatically. On the other hand, the substructure 4H-3,1-benzoxazin-4-one in this work and the carboxylic group in the commercial phenoxyethanoic and phenoxypropionic acid herbicides play also a crucial role in the contribution to the activities of the compounds, meaning they are active substructures.
The herbicidal activity was examined for the growth inhibition effect of the dicotyledon rape Brassica napus and the monocotyledon barnyard grass Echinochloa crusgalli, using the standard Petri dish test and the pre-emergence treatment procedure. Briefly, the compounds to be tested were dissolved in DMF and emulsified with Tween 80, and the solutions were diluted with water to the concentrations of […], respectively. Nine mL of the solution was added in a Petri dish of 9 cm diameter and two pieces of filter paper were placed on the dish bottom. Twenty seeds each of rape and barnyard grass were placed on the filter paper. The covered Petri dish was transferred into an artificial climate incubator (MGC-400H, Shantou Keyi Co., Ltd., China), where the conditions were controlled at temperature 23 ± 1 °C, humidity 60 ± 5%, light intensity 10 Klux, and photoperiod 12 h/day. The incubation was continued for 5 days, then the lengths of 10 roots and 10 stems for each type of plant were measured and the mean values were calculated. The percent inhibitory ratios were calculated relative to control plants exposing to distilled water instead of the compound solution.

[4] = root growth, read-out: Relative inhibition, root
[5] = stalk growth, read-out: Relative inhibition, stalk
[6] = rape root elongation, Table 3, read-out: IC50 for the root elongation inhibition of rape

In the case of `O=c1oc(COc2ccc(Cl)cc2Cl)nc2ccccc12` [3m, 2-((2,4-Dichlorophenoxy)methyl)-4H-3,1-benzoxazin-4-one], the inhibition at 1 µg/mL [1, 4] is reported as 38.3%, the inhibition at 1 µg/mL [1, 5] is reported as -22.7% and the inhibition at 10 µg/mL [1, 4] is reported as 100%. It also gave an inhibition at 10 µg/mL [1, 5] of -0.6%, an inhibition at 1 µg/mL (rape Brassica napus [2]; [4]) of 96.3% and an inhibition at 1 µg/mL (rape Brassica napus [2]; [5]) of 77.7%. The inhibition at 10 µg/mL (rape Brassica napus [2]; [4]) was 100%, the inhibition at 10 µg/mL (rape Brassica napus [2]; [5]) was 93.8% and the IC50 (rape Brassica napus [3]; [6]) was 10.3 µM. The melting point was 118.5 to 119.3 °C.
In the case of `O=c1oc(COc2ccc(Cl)cc2Cl)nc2cccc(Cl)c12` [3n, 5-Chloro-2-((2,4-dichlorophenoxy)methyl)-4H-benzo[3,1]oxazin-4-one], the inhibition at 1 µg/mL [1, 4] is reported as 44.4%, the inhibition at 1 µg/mL [1, 5] is reported as 12.8% and the inhibition at 10 µg/mL [1, 4] is reported as 57.5%. The inhibition at 10 µg/mL [1, 5] was -1.9%, the inhibition at 1 µg/mL (rape Brassica napus [2]; [4]) was 80.5% and the inhibition at 1 µg/mL (rape Brassica napus [2]; [5]) was 38.7%. The inhibition at 10 µg/mL (rape Brassica napus [2]; [4]) was 79.2%, the inhibition at 10 µg/mL (rape Brassica napus [2]; [5]) was 45.9% and the IC50 (rape Brassica napus [3]; [6]) was 43.5 µM. The melting point was 161.9 to 163.2 °C.
In the case of `O=c1oc(COc2ccc(Cl)cc2Cl)nc2ccc(Cl)cc12` [3o, 6-Chloro-2-((2,4-dichlorophenoxy)methyl)-4H-3,1-benzoxazin-4-one], the inhibition at 1 µg/mL [1, 4] is reported as 73.6%, the inhibition at 1 µg/mL [1, 5] is reported as -29.1% and the inhibition at 10 µg/mL [1, 4] is reported as 89.4%. For the same compound, the inhibition at 10 µg/mL [1, 5] was 14.5%, the inhibition at 1 µg/mL (rape Brassica napus [2]; [4]) was 93.7% and the inhibition at 1 µg/mL (rape Brassica napus [2]; [5]) was 66.2%. For the same compound, the inhibition at 10 µg/mL (rape Brassica napus [2]; [4]) was 100%, the inhibition at 10 µg/mL (rape Brassica napus [2]; [5]) was 91.4% and the IC50 (rape Brassica napus [3]; [6]) was 10.7 µM. It also gave an IC50 (rape Brassica napus [3]; rape root growth, read-out: IC50, inhibitory efficacy against the rape root growth) of 0.0104 µM and a melting point of 157.9 to 160.1 °C.
For `O=c1oc(COc2ccc(Cl)cc2Cl)nc2cc(Cl)ccc12` [3p, 7-Chloro-2-((2,4-dichlorophenoxy)methyl)-4H-3,1-benzoxazin-4-one], the inhibition at 1 µg/mL [1, 4] was 64.3%, the inhibition at 1 µg/mL [1, 5] was 5.9% and the inhibition at 10 µg/mL [1, 4] was 100%. It also gave an inhibition at 10 µg/mL [1, 5] of -14.4%, an inhibition at 1 µg/mL (rape Brassica napus [2]; [4]) of 98% and an inhibition at 1 µg/mL (rape Brassica napus [2]; [5]) of 82.3%. For the same compound, the inhibition at 10 µg/mL (rape Brassica napus [2]; [4]) was 100%, the inhibition at 10 µg/mL (rape Brassica napus [2]; [5]) was 91.4% and the IC50 (rape Brassica napus [3]; [6]) was 11.1 µM. The melting point was 139.6 to 142.5 °C.
With `COc1cc2nc(COc3ccc(Cl)cc3Cl)oc(=O)c2cc1OC` [3q, 2-((2,4-Dichlorophenoxy)methyl)-6,7-dimethoxy-4H-3,1-benzoxazin-4-one] the inhibition at 1 µg/mL [1, 4] was 35.5%, the inhibition at 1 µg/mL [1, 5] was -7.4% and the inhibition at 10 µg/mL [1, 4] was 51.9%. The inhibition at 10 µg/mL [1, 5] was -52.8%, the inhibition at 1 µg/mL (rape Brassica napus [2]; [4]) was 58.3% and the inhibition at 1 µg/mL (rape Brassica napus [2]; [5]) was 14.8%. The inhibition at 10 µg/mL (rape Brassica napus [2]; [4]) was 100%, the inhibition at 10 µg/mL (rape Brassica napus [2]; [5]) was 85.2% and the IC50 (rape Brassica napus [3]; [6]) was 142 µM. The melting point was 161.9 to 163.2 °C.
In the case of `Nn1c(COc2ccc(Cl)cc2Cl)nc2ccccc2c1=O` [4f, 3-Amino-2-((2,4-dichlorophenoxy)methyl)-3H-quinazolin-4-one], the inhibition at 1 µg/mL [1, 4] is reported as 35%, the inhibition at 1 µg/mL [1, 5] is reported as -5% and the inhibition at 10 µg/mL [1, 4] is reported as 22.2%. The inhibition at 10 µg/mL [1, 5] was -6.6%, the inhibition at 1 µg/mL (rape Brassica napus [2]; [4]) was 65.6% and the inhibition at 1 µg/mL (rape Brassica napus [2]; [5]) was 48.1%. The inhibition at 10 µg/mL (rape Brassica napus [2]; [4]) was 73.4%, the inhibition at 10 µg/mL (rape Brassica napus [2]; [5]) was 48.1% and the IC50 (rape Brassica napus [3]; [6]) was 224 µM. It also gave a melting point of 214.6 to 215.7 °C.
With `COc1cc2nc(COc3ccc(Cl)cc3Cl)n(N)c(=O)c2cc1OC` [4j, 3-Amino-2-((2,4-dichlorophenoxy)methyl)-6,7-dimethoxy-3H-quinazolin-4-one] the inhibition at 1 µg/mL [1, 4] was 7.7%, the inhibition at 1 µg/mL [1, 5] was 8.3% and the inhibition at 10 µg/mL [1, 4] was 60%. For the same compound, the inhibition at 10 µg/mL [1, 5] was 5%, the inhibition at 1 µg/mL (rape Brassica napus [2]; [4]) was 58.4% and the inhibition at 1 µg/mL (rape Brassica napus [2]; [5]) was 40.2%. The inhibition at 10 µg/mL (rape Brassica napus [2]; [4]) was 84.9%, the inhibition at 10 µg/mL (rape Brassica napus [2]; [5]) was 67.2% and the IC50 (rape Brassica napus [3]; [6]) was 168 µM. The melting point was 272.3 to 273.1 °C.
`Cn1c(COc2ccc(Cl)cc2)nc2cccc(Cl)c2c1=O` [4k, 5-Chloro-2-((4-chlorophenoxy)methyl)-3-methyl-3H-quinazolin-4-one] gave an inhibition at 1 µg/mL [1, 4] of 32.2%, an inhibition at 1 µg/mL [1, 5] of 7.5% and an inhibition at 10 µg/mL [1, 4] of 50.9%. It also gave an inhibition at 10 µg/mL [1, 5] of 1.5%, an inhibition at 1 µg/mL (rape Brassica napus [2]; [4]) of 48.8% and an inhibition at 1 µg/mL (rape Brassica napus [2]; [5]) of 21.6%. It also gave an inhibition at 10 µg/mL (rape Brassica napus [2]; [4]) of 81.9%, an inhibition at 10 µg/mL (rape Brassica napus [2]; [5]) of 52.9% and an IC50 (rape Brassica napus [3]; [6]) of 201 µM. It also gave a melting point of 184.9 to 185.7 °C.
